In brackets after ≈: the same amount, converted by molar mass. Values belong to the compound of their own block, whether it stands above or below them.
Tests used:
[1] = tested on: Leishmania braziliensis promastigotes; experiment: Depolarization of mitochondrial membrane potential (ΔΨm), JC-1; type: cell-based; details: FCCP 1.3 µg/mL (5.0 µmol/L) for 20 min; non-treated parasites 7.2
Procedure: Leishmania braziliensis promastigotes (1 × 10^7 cells/mL) were treated with compound 28 (at a concentration corresponding to one IC50 value) for 48 h at 24 °C. The parasites (3 × 10^6 cells/mL) were then labeled with JC-1 (5 µg/mL, Sigma-Aldrich, St. Louis, MO, USA) for 30 min at 37 °C. After washing twice with PBS to remove the non-internalized dye, the samples were added to a black 96-well plate, and the ΔΨm was analyzed in a spectrofluorometer (FLx800, BioTek Instruments, Winooski, VT, USA) with an excitation filter of 485 nm and emission wavelength of 528 nm and […] to measure the green and red fluorescence, respectively. The ΔΨm was determined using the ratio between the red/green fluorescence intensity. Parasites that were exposed to 1.3 µg/mL (5.0 µmol/L) of FCCP (Sigma-Aldrich, St. Louis, MO, USA) for 20 min were used as a control. […]
Figure 4 ΔΨm and ROS production in Leishmania after exposure to Compound 28. […] (A) Depolarization of ΔΨm was evaluated using the JC-1 fluorescent probe. Samples were analyzed fluorometrically, and the results are expressed as the ratio of red/green fluorescence. […] (B) ROS production was evaluated using the H2DCFDA probe. The fluorescence intensity was measured by fluorimetry, and the results are expressed as the fold increase in the ROS level compared with the non-treated control. […]

[2] = tested on: L. braziliensis-infected macrophages; experiment: ROS levels in Leishmania-infected macrophages (H2DCFDA); type: cell-based, Leishmania braziliensis; details: H2O2 0.02 µg/mL (0.5 µmol/L)
Procedure: Macrophages (1 × 10^6 cells/mL) were incubated in 96-well culture plates (Nunc, Nunclon, Roskilde, Denmark) and infected with L. braziliensis promastigotes (at a ratio of 10 parasites per cell). The infected macrophages were either left untreated or treated with Compound 28 (at a concentration of 5.0 µg/mL) for 48 h at 37 °C in 5% CO2. The cells were washed with PBS and incubated with 20 μmol/L H2DCFDA (Molecular Probes, Eugene, Oregon, USA) for 30 min in the dark. The fluorescence intensity was measured using a spectrofluorometer (FLx800; BioTek Instruments, Winooski, VT, USA) at 485 nm excitation and 528 nm emission. As a positive control, the infected macrophages were incubated with H2O2 at a concentration of 0.02 µg/mL (0.5 µmol/L). Parasites that were untreated with Compound 28 and not labeled with the fluorescent probe were used as the sample blank.
Figure 3 Production of ROS in L. braziliensis-infected macrophages treated with Compound 28. Leishmania braziliensis-infected macrophages (1 × 10^5 cells) were incubated with Compound 28 (5.0 µg/mL) for 48 h at 37 °C in a 5% CO2 environment. Subsequently, 2′,7′-dichlorodihydrofluorescein diacetate (H2DCFDA, 9.7 μg/mL) was added for 30 min under dark conditions. The fluorescence levels were measured in a spectrofluorometer at 485/528 nm. H2O2 (0.5 µmol/L) was used as a positive control. […]

[3] = tested on: L. braziliensis promastigotes; experiment: ROS production in promastigotes (H2DCFDA); type: cell-based, Leishmania braziliensis; details: H2O2-incubated promastigotes
Procedure: After treatment with Compound 28 (at a concentration corresponding to one IC50 value) for 48 h at 24 °C, L. braziliensis promastigotes were washed with PBS, and the parasite concentration was adjusted to 3 × 10^6 cells per well. H2DCFDA (Sigma-Aldrich, St. Louis, MO, USA) was then added and incubated for 30 min in the dark, and samples were read in a fluorometric microplate reader (FLx800, BioTek Instruments, Winooski, VT, USA) with excitation and emission wavelengths of 485 and 528 nm, respectively. Parasites that were untreated or treated with Compound 28 and not labeled with the fluorescent probe were used as the blank.
Figure 4 ΔΨm and ROS production in Leishmania after exposure to Compound 28. Leishmania braziliensis promastigotes were not exposed (negative control) or exposed to Compound 28 (at a concentration corresponding to the IC50 value) for 48 h. (A) Depolarization of ΔΨm was evaluated using the JC-1 fluorescent probe. Samples were analyzed fluorometrically, and the results are expressed as the ratio of red/green fluorescence. FCCP ([…]) was used as a positive control. (B) ROS production was evaluated using the H2DCFDA probe. The fluorescence intensity was measured by fluorimetry, and the results are expressed as the fold increase in the ROS level compared with the non-treated control. H2O2-treated parasites were used as a positive control. […]

[4] = tested on: Leishmania braziliensis stationary promastigotes; experiment: In vitro antileishmanial activity against promastigotes (MTT); type: cell-based
Procedure: The study was approved by the Committee for the Ethical Handling of Research Animals from the Federal University of Minas Gerais (protocol number 085/2017). Leishmania braziliensis (MHOM/BR/1975/M2904) promastigotes were grown at 24 °C in Schneider’s medium (Sigma-Aldrich, USA) supplemented with 20% heat-inactivated fetal bovine serum (FBS, Sigma-Aldrich, USA) and 20 mmol/L L-glutamine at pH 7.4 [65].
(§1) The in vitro antileishmanial activity was evaluated by incubating the promastigotes or axenic amastigotes (1 × 10^6 cells/well) with the 24 synthetic derivatives (Compounds 5–28; 0 to 600 µg/mL) in 96-well culture plates (Nunc, Nunclon, Roskilde, Denmark) for 48 h at 24 °C. Due to the difficulty in obtaining a high concentration of murine macrophages, the cytotoxicity experiment was evaluated by incubating such cells (5 × 10^5 per mL) with Compound 28 (0 to 600 µg/mL), which presented the best antileishmanial activity, for 48 h at 37 °C in a 5% CO2 environment. AmpB (0 to 10 µg/mL; Sigma-Aldrich, St. Louis, MO, USA) was used as a positive control in both experiments. The cell viability was assessed using the 3-(4.5-dimethylthiazol-2-yl)-2.5-diphenyl tetrazolium bromide (MTT, Sigma-Aldrich, St. Louis, MO, USA) method. The optical density (OD) values were read using a microplate spectrophotometer (Molecular Devices, Spectra Max Plus, San Jose, CA, USA) at 570 nm. Results were entered into Microsoft Excel (version 10.0) spreadsheets, and the 50% Leishmania and macrophage inhibitory concentrations (IC50 and CC50, respectively) were calculated by applying a sigmoidal regression of the dose–response curve. The SI was calculated by dividing the CC50 with the respective IC50 values.

[5] = tested on: Leishmania braziliensis axenic amastigotes; experiment: In vitro antileishmanial activity against axenic amastigotes (MTT); type: cell-based
Procedure: To obtain the axenic amastigotes, 1 × 10^9 stationary promastigotes were washed three times in sterile phosphate-buffered saline (PBS) and incubated in 5 mL FBS for 48 h at 37 °C. Parasites were washed with cold PBS, and their morphology was evaluated with an optical microscope after Giemsa staining as previously described.
as §1

[6] = Cytotoxicity in mammalian cells (MTT); type: cell-based; details: mouse; murine macrophages, 48 h at 37 °C in 5% CO2, MTT, mean ± standard deviation
Procedure: as §1

[7] = tested on: L. braziliensis-infected macrophages; experiment: Treatment of infected macrophages; type: cell-based, Leishmania braziliensis; details: 48 h at 37 °C; for Number of Amastigotes per Cell after treatment: untreated 10.3; for Percentage of Infected Macrophages after Treatment: untreated 92.8
Procedure: Murine macrophages (5 × 10^5 cells) were plated on round glass coverslips in 24-well plates in RPMI 1640 medium with added 20% FBS and 20 mmol/L L-glutamine at pH 7.4 and incubated for 24 h at 37 °C in 5% CO2. Promastigotes were added to the wells (at a ratio of 10 parasites per macrophage), and cultures were incubated for 48 h at 37 °C in a 5% CO2 environment. Free parasites were removed by extensive washing with RPMI 1640 medium, and the infected macrophages were treated with Compound 28 or AmpB (0, 1.0, 2.5 and 5.0 µg/mL in both cases) for 48 h at 37 °C in 5% CO2.
(§2) To evaluate the inhibition of infection, promastigotes (5 × 10^6 cells) were first incubated with Compound 28 or AmpB (0, 1.0, 2.5 and 5.0 µg/mL in both cases) for 4 h at 24 °C; these were then used to infect murine macrophages (at a ratio of 10 parasites per macrophage) and incubated for 24 h at 37 °C in 5% CO2. Then, cells were fixed with 4% paraformaldehyde, washed, and stained with Giemsa. The percentage of infected macrophages and the number of recovered amastigotes were determined by counting 200 cells, in triplicate, using an optical microscope.

[8] = tested on: L. braziliensis promastigotes infecting murine macrophages; experiment: Inhibition of infection (parasites pre-incubated with compound, then used to infect macrophages); type: cell-based, Leishmania braziliensis; details: for Number of Amastigotes per Cell using pre-incubated parasites: untreated 8.9; for Percentage of Infected Macrophages Using Pre-Incubated Parasites: untreated 90.5
Procedure: as §2

[9] = parasites pre-incubated with 2.5 µg/mL at 24 °C
[10] = parasites pre-incubated with 5.0 µg/mL at 24 °C

Compound: N#CC(C#N)=NNc1ccc(OC(F)(F)F)cc1 [FCCP, carbonyl cyanide-p-trifluoromethoxyphenylhydrazone, reference compound]
- ΔΨm, JC-1 ratio of red/green fluorescence (positive control) [1]: 3.4

Compound: OO [Compound H2O2, H2O2, reference compound]
- Increase in ROS production in infected cells (positive control) [2]: 41.4%
- Fold increase in ROS levels compared with untreated parasites (positive control) [3]: 1.6 fold

- IC50 ([4]; Leishmania braziliensis, 48 h at 24 °C, MTT, mean ± standard deviation): 0.974 ± 0.2 µg/mL (≈ 1.05 µM)
- IC50 ([5]; Leishmania braziliensis, 48 h, 48 h at 24 °C, MTT, mean ± standard deviation): 1.3 ± 0.4 µg/mL (≈ 1.41 µM)
Compound: C[C@@H]1[C@H](O)[C@@H](C)/C=C/C=C/C=C/C=C/C=C/C=C/C=C/[C@H](O[C@@H]2O[C@H](C)[C@@H](O)[C@H](N)[C@@H]2O)C[C@@H]2O[C@](O)(C[C@@H](O)C[C@@H](O)[C@H](O)CC[C@@H](O)C[C@@H](O)CC(=O)O[C@H]1C)C[C@H](O)[C@H]2C(=O)O [Amphotericin B, amphotericin B, reference compound]
- Selectivity index (SI), ratio CC50/IC50, promastigotes ([4]; CC50 murine macrophages / IC50 promastigotes): 9.1
- Selectivity index (SI), ratio CC50/IC50, axenic amastigotes ([5]; CC50 murine macrophages / IC50 axenic amastigotes): 6.8
- CC50 at 48 h [6]: 8.9 ± 0.8 µg/mL (≈ 9.63 µM)
- Number of Amastigotes per Cell after treatment ([7]; 1.0 µg/mL): 4.2
- Percentage of Infected Macrophages after Treatment ([7]; 1.0 µg/mL): 39.1%
- Number of Amastigotes per Cell after treatment ([7]; 2.5 µg/mL): 3.5
- Percentage of Infected Macrophages after Treatment ([7]; 2.5 µg/mL): 27.6%
- Number of Amastigotes per Cell after treatment ([7]; 5.0 µg/mL): 1.8
- Percentage of Infected Macrophages after Treatment ([7]; 5.0 µg/mL): 19.8%
- Number of Amastigotes per Cell using pre-incubated parasites [8, 9]: 6.5
- Percentage of Infected Macrophages Using Pre-Incubated Parasites [8, 9]: 67.6%
- Number of Amastigotes per Cell using pre-incubated parasites [8, 10]: 5.3
- Percentage of Infected Macrophages Using Pre-Incubated Parasites [8, 10]: 51.4%

Source: paper PMC10459042, “Synthesis of 1,2,3-Triazole-Containing Methoxylated Cinnamides and Their Antileishmanial Activity against the Leishmania braziliensis Species” (Pharmaceuticals, 2023)
